pIC50: −log10 of the molar value. ≈ marks a conversion by molar mass, not a printed value. Where a name gives a salt, the structure may show the parent alone.
Assays:
[1] = FaSSIF solubility (Fasted State Simulated Intestinal Fluid); assay type: physicochemical; conditions: thermodynamic from solid, FaSSIF pH 6.5, 4 h equilibration at room temperature, dynamic range 1-1000 μg/mL
Protocol: 1 mL of FaSSIF buffer (3 mM sodium taurocholate, 0.75 mM lecithin in sodium phosphate buffer at pH 6.5) was added to manually weighed 1 mg of the solid compound in a 4 mL vial. […] The residual solid was removed by filtration. The supernatant solution was quantified by HPLC-UV using single point calibration of a known concentration of the compound in DMSO. The dynamic range of the assay was 1-1000 μg/mL.

CGAS = CGAS whole blood cytokine release assay (384-well, BacMam stimulation, IP-10 by cytometric bead array); assay type: cell-based; conditions: Homo sapiens, 6 h; read-out: hWB pXC50 (converted)
Method in brief: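 Heparinised human donor whole blood mixed with serially diluted compound plus Null BacMam stimulus, incubated 6 h at 37° C, 5% CO2. Supernatant IP-10 quantified by cytometric bead array on flow cytometer (488 nm excitation, 585/40 nm emission); inhibition of IP-10 calculated.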

human CGAS (157-522) = human CGAS (157-522) (Homo sapiens, UniProt Q8N884); test: biochemical;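 also: biochemical enzyme reaction, 2′3′-cGAMP product measured by RapidFire mass spectrometry (MRM) normalised to c-di-UMP internal standard, inhibition of product formation relative to high and low control wells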
human CGAS (157-522), sequence (Q8N884 157-522): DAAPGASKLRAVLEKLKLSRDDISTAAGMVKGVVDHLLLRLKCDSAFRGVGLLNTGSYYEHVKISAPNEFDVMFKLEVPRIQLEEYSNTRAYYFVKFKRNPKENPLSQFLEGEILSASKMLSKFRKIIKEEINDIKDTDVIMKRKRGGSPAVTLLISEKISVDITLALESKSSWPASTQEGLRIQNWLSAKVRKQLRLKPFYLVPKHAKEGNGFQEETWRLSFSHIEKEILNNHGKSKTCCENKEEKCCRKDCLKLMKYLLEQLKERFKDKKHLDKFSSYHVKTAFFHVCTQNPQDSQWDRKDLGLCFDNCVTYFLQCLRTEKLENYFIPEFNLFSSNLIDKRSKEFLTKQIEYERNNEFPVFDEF

Row | Compound | solubility at 4 h [1] [µg/mL] | IC50 (CGAS) [nM] | pIC50 (human CGAS (157-522))
1 | CNCCOC(=O)OCn1nc(C(F)(F)F)nc1-c1nc2ncccn2c1-c1cnc[nH]1 [Example 28, {5-[3-(1H-imidazol-5-yl)imidazo[1,2-a]pyrimidin-2-yl]-3-(trifluoromethyl)-1H-1,2,4-triazol-1-yl}methyl 2-(methylamino)ethyl carbonate, 2 trifluoroacetic acid salt] | 208 | 316 | 8.50
2 | FC(F)(F)c1n[nH]c(-c2nc3ncccn3c2-c2c[nH]cn2)n1 [Example 1, 5-[3-(1H-imidazol-4-yl)imidazo[1,2-a]pyrimidin-2-yl]-3-(trifluoromethyl)-1H-1,2,4-triazole] | 4 (≈ 12.5 µM) | 158 | –
3 | CNCC(=O)OCc1cccnc1N(C)C(=O)OC(C)n1cncc1-c1c(-c2nc(C(F)(F)F)n[nH]2)nc2ncccn12 (stereo not drawn) [Example 25, {2-[methyl({[1-(5-{2-[3-(trifluoromethyl)-1H-1,2,4-triazol-5-yl]imidazo[1,2-a]pyrimidin-3-yl}-1H-imidazol-1-yl)ethoxy]carbonyl})amino]pyridin-3-yl}methyl 2-(methylamino)acetate, hydrochloride salt] | > 1000 | 316 | 7.60
4 | O=C(CCCOP(=O)(O)O)OCn1cnc(-c2c(-c3nc(C(F)(F)F)n[nH]3)nc3ncccn23)c1 [Example 29, {4-oxo-4-[(4-{2-[3-(trifluoromethyl)-1H-1,2,4-triazol-5-yl]imidazo[1,2-a]pyrimidin-3-yl}-1H-imidazol-1-yl)methoxy]butoxy}phosphonic acid, trifluoroacetic acid salt] | > 1000 | 316 | 7.50
5 | O=C(O)CCC(=O)OCn1cnc(-c2c(-c3nc(C(F)(F)F)n[nH]3)nc3ncccn23)c1 [Example 23, 4-oxo-4-[(4-{2-[3-(trifluoromethyl)-1H-1,2,4-triazol-5-yl]imidazo[1,2-a]pyrimidin-3-yl}-1H-imidazol-1-yl)methoxy]butanoic acid] | 455 (≈ 1010 µM) | 794 | 6.60
6 | CNCCOC(=O)OCn1cnc(-c2c(-c3nc(C(F)(F)F)nn3COC(=O)OCCNC)nc3ncccn23)c1 [Example 27, [4-(2-{1-[({[2-(methylamino)ethoxy]carbonyl}oxy)methyl]-3-(trifluoromethyl)-1H-1,2,4-triazol-5-yl}imidazo[1,2-a]pyrimidin-3-yl)-1H-imidazol-1-yl]methyl 2-(methylamino)ethyl carbonate, 2 trifluoroacetic acid salt] | 298 | 158 | –
7 | CC(C)[C@H](N)C(=O)OCn1cnc(-c2c(-c3nc(C(F)(F)F)nn3COC(=O)[C@@H](N)C(C)C)nc3ncccn23)c1 [Example 24, (4-{2-[1-({[(2S)-2-amino-3-methylbutanoyl]oxy}methyl)-3-(trifluoromethyl)-1H-1,2,4-triazol-5-yl]imidazo[1,2-a]pyrimidin-3-yl}-1H-imidazol-1-yl)methyl (2S)-2-amino-3-methylbutanoate, 2 trifluoroacetic acid salt] | 324 | – | 7.20

— patent US12247033B2, “Triazole-substituted imidazo[1,2-a]pyrimidines as cGAS inhibitors” (GlaxoSmithKline Intellectual Property Development Limited, priority 2022, dated 2025)
